Measurements taken from BindingDB's records for patent US10053463 (Janssen Pharmaceutica NV, 2018).

Target: T1, P2X purinoceptor 7 (Homo sapiens, UniProt Q99572)
T1 sequence (Q99572 whole entry): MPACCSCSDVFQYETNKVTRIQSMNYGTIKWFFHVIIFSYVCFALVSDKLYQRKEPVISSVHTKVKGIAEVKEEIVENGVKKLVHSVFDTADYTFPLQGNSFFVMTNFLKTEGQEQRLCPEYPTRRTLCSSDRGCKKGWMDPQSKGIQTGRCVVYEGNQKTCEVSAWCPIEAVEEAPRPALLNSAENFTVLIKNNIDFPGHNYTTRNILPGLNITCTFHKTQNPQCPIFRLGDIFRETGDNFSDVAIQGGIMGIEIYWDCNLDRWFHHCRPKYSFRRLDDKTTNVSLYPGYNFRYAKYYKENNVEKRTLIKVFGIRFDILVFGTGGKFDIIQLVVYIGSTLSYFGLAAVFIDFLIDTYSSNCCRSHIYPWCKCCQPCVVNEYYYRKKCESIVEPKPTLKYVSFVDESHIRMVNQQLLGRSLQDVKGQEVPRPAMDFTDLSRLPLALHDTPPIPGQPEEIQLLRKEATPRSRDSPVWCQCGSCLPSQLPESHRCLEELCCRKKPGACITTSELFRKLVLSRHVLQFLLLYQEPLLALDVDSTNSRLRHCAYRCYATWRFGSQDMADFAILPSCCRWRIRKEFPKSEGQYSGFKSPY
Assay: P2X7 Radioligand Binding
Description: human or rat P2X7-1321N1 cells were collected and frozen @−80° C. On the day of the experiment, cell membrane preparations were made according to standard published methods. […] The compound can be prepared as described in the literature. […] The assay was terminated by filtration (GF/B filters pre-soaked with 0.3% PEI) and washed with washing buffer (Tris-HCl 50 mM). The IC50 generated in the binding assay was corrected for tracer concentration and affinity of the tracer to derive at the affinity (K) of the test compounds. […] Data are analyzed and graphed on Graphpad Prism 5.

Row | Ki [nM] | SMILES
1 | 20 | NNC(=O)c1ncccn1 [US10053463, 8]
2 | 10 | NNC(=O)c1ccncn1 [US10053463, 9]

Row | SMILES | Ki [nM]
3 | O=C1NCCn2c1nnc2-c1cnccn1 [US10053463, 1] | 63.1
